Assay results reported in PubChem BioAssay AID248 (DTP/NCI, 2004).
Several values for one entry are separate records, joined by “and”; a condition that tells them apart may be missing. Equal entries are not always repeated. Toxic doses and inconclusive results are not listed.

Test system: L1210 leukemia ip in BDF1 mice, survival T/C
Test: NCI In Vivo Anticancer Drug Screen. Data for tumor model L1210 Leukemia (intraperitoneal) in B6D2F1 (BDF1) mice
Details: endpoint: mean survival time, higher = longer survival
Summary of the method: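 Tumor cells were implanted, animals were treated, and survival was followed. The result divides the treated measurement by the vehicle-control measurement.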

[1] = dose: 75.0 mg/kg/injection, schedule: Q04DX003 (ip), vehicle: saline
[2] = dose: 150.0 mg/kg/injection, schedule: Q04DX003 (ip), vehicle: saline
[3] = dose: 50.0 mg/kg/injection, schedule: Q01DX009 (ip), vehicle: saline
[4] = dose: 100.0 mg/kg/injection, schedule: Q01DX009 (ip), vehicle: saline
[5] = dose: 100.0 mg/kg/injection, schedule: Q04DX002 (ip), vehicle: saline
[6] = dose: 200.0 mg/kg/injection, schedule: Q01DX009 (ip), vehicle: saline
[7] = dose: 200.0 mg/kg/injection, schedule: Q04DX002 (ip), vehicle: saline
[8] = dose: 400.0 mg/kg/injection, schedule: Q04DX002 (ip), vehicle: saline
[9] = dose: 50.0 mg/kg/injection, schedule: Q01DX001 (ip), vehicle: saline
[10] = dose: 200.0 mg/kg/injection, schedule: Q01DX001 (ip), vehicle: saline
[11] = dose: 100.0 mg/kg/injection, schedule: Q01DX001 (ip), vehicle: carboxymethylcellulose (CMC)
[12] = dose: 100.0 mg/kg/injection, schedule: Q01DX001 (ip), vehicle: saline
[13] = dose: 200.0 mg/kg/injection, schedule: Q01DX001 (ip), vehicle: carboxymethylcellulose (CMC)
[14] = dose: 400.0 mg/kg/injection, schedule: Q01DX001 (ip), vehicle: carboxymethylcellulose (CMC)
[15] = dose: 400.0 mg/kg/injection, schedule: Q01DX001 (ip), vehicle: saline
[16] = dose: 100.0 mg/kg/injection, schedule: Q01DX009 (ip), vehicle: Klucel (hydroxypropylcellulose) (HPC)
[17] = dose: 100.0 mg/kg/injection, schedule: Q04DX003 (ip), vehicle: Klucel (hydroxypropylcellulose) (HPC)
[18] = dose: 200.0 mg/kg/injection, schedule: Q01DX009 (ip), vehicle: Klucel (hydroxypropylcellulose) (HPC)
[19] = dose: 200.0 mg/kg/injection, schedule: Q04DX003 (ip), vehicle: Klucel (hydroxypropylcellulose) (HPC)
[20] = dose: 400.0 mg/kg/injection, schedule: Q01DX009 (ip), vehicle: Klucel (hydroxypropylcellulose) (HPC)
[21] = dose: 400.0 mg/kg/injection, schedule: Q04DX003 (ip), vehicle: Klucel (hydroxypropylcellulose) (HPC)
[22] = dose: 100.0 mg/kg/injection, schedule: Q04DX003 (ip), vehicle: saline
[23] = dose: 200.0 mg/kg/injection, schedule: Q04DX003 (ip), vehicle: saline
[24] = dose: 400.0 mg/kg/injection, schedule: Q04DX003 (ip), vehicle: saline
[25] = dose: 100.0 mg/kg/injection, schedule: Q01DX001 (ip), vehicle: Klucel (hydroxypropylcellulose) (HPC)
[26] = dose: 200.0 mg/kg/injection, schedule: Q01DX001 (ip), vehicle: Klucel (hydroxypropylcellulose) (HPC)
[27] = dose: 50.0 mg/kg/injection, schedule: Q01DX009 (ip), vehicle: Klucel (hydroxypropylcellulose) (HPC)
[28] = dose: 100.0 mg/kg/injection, schedule: Q04DX002 (ip), vehicle: saline with Tween-80

NCCSC1(O)C(=O)c2ccccc2-c2ccccc21 (configuration not stated)
T/C (dose: 37.5 mg/kg/injection, schedule: Q04DX003 (ip), vehicle: saline): 94 % of control | T/C (dose: 75.0 mg/kg/injection, schedule: Q01DX001 (ip), vehicle: saline): 101 % of control | T/C [1]: 103 % of control | T/C (dose: 150.0 mg/kg/injection, schedule: Q01DX001 (ip), vehicle: saline): 95 % of control | T/C [2]: 95 % of control

O=C(O)CCNCc1ccccc1
T/C [3]: 100 % of control | T/C [4]: 108 % of control | T/C [5]: 111 % of control | T/C [6]: 100 % of control | T/C [7]: 97 % of control | T/C [8]: 97 % of control

OCc1ccn2c1[C@@H](O)CC2
T/C (dose: 6.25 mg/kg/injection, schedule: Q01DX009 (ip), vehicle: saline): 107 % of control | T/C (dose: 12.5 mg/kg/injection, schedule: Q01DX009 (ip), vehicle: acetone): 100 % of control | T/C (dose: 12.5 mg/kg/injection, schedule: Q01DX009 (ip), vehicle: saline): 96 % of control | T/C (dose: 25.0 mg/kg/injection, schedule: Q01DX001 (ip), vehicle: saline): 101 % of control and 107 % of control | T/C (dose: 25.0 mg/kg/injection, schedule: Q01DX009 (ip), vehicle: acetone): 111 % of control | T/C (dose: 25.0 mg/kg/injection, schedule: Q01DX009 (ip), vehicle: saline): 110 % of control | T/C [9]: 112 % of control | T/C [3]: 153 % of control | T/C [4]: 121 % of control and 89 % of control | T/C [10]: 112 % of control

Nc1nc[nH]c(=O)c1NC=O
T/C [4]: 94 % of control | T/C (dose: 100.0 mg/kg/injection, schedule: Q04DX003 (ip), vehicle: saline with Tween-80): 97 % of control | T/C [6]: 100 % of control | T/C (dose: 200.0 mg/kg/injection, schedule: Q04DX003 (ip), vehicle: saline with Tween-80): 98 % of control | T/C (dose: 400.0 mg/kg/injection, schedule: Q01DX009 (ip), vehicle: saline): 104 % of control | T/C (dose: 400.0 mg/kg/injection, schedule: Q04DX003 (ip), vehicle: saline with Tween-80): 101 % of control

COC1OC(COC(=O)c2ccc([N+](=O)[O-])cc2)C2OC12 (configuration not stated)
T/C [11]: 100 % of control | T/C [12]: 101 % of control | T/C [13]: 95 % of control | T/C [10]: 101 % of control and 109 % of control | T/C [14]: 89 % of control | T/C [15]: 101 % of control

CN(C)C=Nc1ccccc1
T/C [16]: 109 % of control | T/C [17]: 111 % of control | T/C [18]: 101 % of control | T/C [19]: 97 % of control | T/C [20]: 100 % of control | T/C [21]: 93 % of control

CCCCCCCCCCCCCCCCCC(=O)N/N=C\c1c(O)ccc2ccccc12
T/C [16]: 93 % of control and 90 % of control | T/C [18]: 88 % of control | T/C [20]: 89 % of control

COc1ccc(/C=N/NC(=O)c2ccc(N=NN(C)C)cc2)c(OC)c1
T/C (dose: 75.0 mg/kg/injection, schedule: Q04DX003 (ip), vehicle: Klucel (hydroxypropylcellulose) (HPC)): 104 % of control | T/C (dose: 150.0 mg/kg/injection, schedule: Q04DX003 (ip), vehicle: Klucel (hydroxypropylcellulose) (HPC)): 97 % of control | T/C (dose: 300.0 mg/kg/injection, schedule: Q04DX003 (ip), vehicle: Klucel (hydroxypropylcellulose) (HPC)): 99 % of control

O=C(CBr)N=c1cc(-c2ccc(Cl)cc2)ss1
T/C [22]: 95 % of control | T/C [23]: 91 % of control | T/C [24]: 101 % of control

COC(=O)CCC(C)C1CCC2(C)C3=C(C(=O)CC12C)C1(C)CCC(O)C(C)(C)C1=C(O)C3 (configuration not stated)
T/C [22]: 91 % of control | T/C [23]: 93 % of control | T/C [24]: 91 % of control

CCCCCCCCCCOC(=O)c1ccccn1
T/C [12]: 93 % of control | T/C [10]: 87 % of control

O=C(O)CCCCCN1C(=O)C2=C(CCCC2)C1=O
T/C [1]: 98 % of control | T/C [2]: 103 % of control | T/C (dose: 300.0 mg/kg/injection, schedule: Q04DX003 (ip), vehicle: saline): 93 % of control

Cc1ccn(-c2cc(NS(=O)(=O)c3ccccc3)c3ccccc3c2NS(=O)(=O)c2ccccc2)c(=O)c1
T/C (dose: 50.0 mg/kg/injection, schedule: Q01DX001 (ip), vehicle: Klucel (hydroxypropylcellulose) (HPC)): 107 % of control | T/C [25]: 94 % of control | T/C [26]: 97 % of control

COc1cc(/C=C/[N+](=O)[O-])ccc1O
T/C (dose: 25.0 mg/kg/injection, schedule: Q01DX009 (ip), vehicle: Klucel (hydroxypropylcellulose) (HPC)): 98 % of control | T/C [27]: 98 % of control | T/C [16]: 102 % of control and 103 % of control

C[S+](C)c1ccccc1C(C)(C)CC(=O)O
T/C [12]: 103 % of control | T/C [10]: 98 % of control | T/C [15]: 110 % of control

CC(O)CNC1CCC(C)CC1 (configuration not stated)
T/C (dose: 75.0 mg/kg/injection, schedule: Q01DX001 (ip), vehicle: acid diluted with saline): 96 % of control | T/C (dose: 150.0 mg/kg/injection, schedule: Q01DX001 (ip), vehicle: acid diluted with saline): 100 % of control

O=C(O)CCCl
T/C [9]: 90 % of control | T/C [27]: 98 % of control | T/C [16]: 92 % of control | T/C [22]: 104 % of control | T/C [10]: 89 % of control | T/C [18]: 92 % of control | T/C [23]: 98 % of control

CNCCN1CCCC1
T/C [3]: 95 % of control | T/C [4]: 103 % of control | T/C [22]: 102 % of control | T/C [6]: 101 % of control | T/C [23]: 109 % of control

O=Cc1cccs1
T/C (dose: 100.0 mg/kg/injection, schedule: Q01DX009 (ip), vehicle: saline with Tween-80): 104 % of control | T/C [28]: 93 % of control | T/C (dose: 200.0 mg/kg/injection, schedule: Q01DX009 (ip), vehicle: saline with Tween-80): 107 % of control | T/C (dose: 200.0 mg/kg/injection, schedule: Q04DX002 (ip), vehicle: saline with Tween-80): 100 % of control | T/C (dose: 400.0 mg/kg/injection, schedule: Q01DX009 (ip), vehicle: saline with Tween-80): 118 % of control | T/C (dose: 400.0 mg/kg/injection, schedule: Q04DX002 (ip), vehicle: saline with Tween-80): 96 % of control

CCC(=O)N(c1ccccc1)C1/C(=C\c2ccccc2)N2CCC1CC2 (configuration not stated)
T/C [17]: 97 % of control | T/C [19]: 95 % of control | T/C [21]: 95 % of control

CCC(N)C(O)C(F)(F)C(F)(F)C(F)(F)F (configuration not stated)
T/C [12]: 112 % of control | T/C [10]: 103 % of control

CCOC(=O)C1C(O)CC2COC(=O)C2C1c1ccc(OC(C)=O)cc1 (configuration not stated)
T/C (dose: 100.0 mg/kg/injection, schedule: Q01DX001 (ip), vehicle: other): 100 % of control | T/C (dose: 200.0 mg/kg/injection, schedule: Q01DX001 (ip), vehicle: other): 95 % of control

O=S(=O)(O)CCl
T/C [5]: 106 % of control | T/C [7]: 120 % of control | T/C [8]: 102 % of control

Clc1ccc(/C=C2\c3cc(Cl)ccc3-c3c(Cl)cc(Cl)cc32)cc1
T/C [25]: 91 % of control | T/C [16]: 91 % of control | T/C [17]: 86 % of control | T/C [26]: 93 % of control | T/C [18]: 90 % of control | T/C [19]: 91 % of control | T/C (dose: 400.0 mg/kg/injection, schedule: Q01DX001 (ip), vehicle: Klucel (hydroxypropylcellulose) (HPC)): 95 % of control | T/C [20]: 86 % of control | T/C [21]: 93 % of control

CC(CO)CCC(=O)C(C)C1C2(CC3C4CCC5CC(O)CCC5(C)C4CCC31C)SCCS2 (configuration not stated)
T/C (dose: 25.0 mg/kg/injection, schedule: Q04DX002 (ip), vehicle: saline with Tween-80): 100 % of control | T/C (dose: 50.0 mg/kg/injection, schedule: Q04DX002 (ip), vehicle: saline with Tween-80): 100 % of control | T/C [28]: 96 % of control

Cc1ccc(S(=O)(=O)Nc2ccccc2C(=O)c2ccc(C)c(C)c2)cc1
T/C [11]: 100 % of control

COc1ccc(N2C(=O)CCC2=S)cc1
T/C (dose: 50.0 mg/kg/injection, schedule: Q01DX001 (ip), vehicle: carboxymethylcellulose (CMC)): 104 % of control | T/C [11]: 96 % of control | T/C [13]: 102 % of control | T/C [14]: 102 % of control
